In US8394767B2, “Methods of treating cancer using the calcitonin-gene related peptide (“CGRP”) receptor antagonist CGRP8-37” (University of Rochester, priority 2008, dated 2013):
No end group written: not given here.

Experiments:
[1] = system: rodent receptors over human receptors; conditions: cited from earlier work
anti-CGRP antibody JH84 = test: Fluorescent competition assay with FL-CGRP tracer on immobilized antibody; assay type: binding; conditions: JH84 bound to 96-well plate, 100 pM FL-CGRP as tracer
Method: FIG. 11 is a graph illustrating that FL-CGRP can be used for a competition assay to determine CGRP concentrations. Affinity-purified JH84 antibody (100 ng/well) was linked to wells in a 96-well plate, and incubated with 100 pM FL-CGRP and increasing concentrations of unlabeled CGRP. Unbound peptide was washed from well, and fluorescence detected in a Perkin Elmer plate reader.
FL-CGRP was then used to develop a fluorescent competition assay. Affinity-purified anti-CGRP antibody JH84 was bound to the wells of a 96-well plate and […] FL-CGRP was incubated as tracer with either unlabeled CGRP, the homologous neuropeptide adrenomedullin (AM), or the CGRP antagonist CGRP(8-37). […] Thus, the antagonist could not totally compete with FL-CGRP for binding to the antibodies.

[2] = system: MDA-MB-231BR breast cancer cells; test: MDA-MB-231BR breast cancer cell growth assay (CyQuant Direct Proliferation Assay); assay type: cell-based, human; conditions: normoxic conditions, after 4 days in culture
Method: (§1) FIGS. 4A-B are graphs illustrating that CGRP is a potent stimulator of MDA-MB231BR breast cancer cell growth. MDA-MB231BR cells were seeded in 96-well plates, and grown for the indicated time in either normoxic (4A) or hypoxic (4B) conditions. Media was replaced every 24 hrs with fresh peptide-containing media. On each day, cell number was determined using the CyQuant Direct Proliferation Assay (Invitrogen).
A similar role for CGRP in the stimulation of breast cancer cell growth was observed using the MDA-MB-231BR breast cancer cell line. […] 81:39-48 (2007); Oxmann et al., “Endoglin Expression in Metastatic Breast Cancer Cells Enhances Their Invasive Phenotype,” Oncogene 27:3567-3575 (2008), each of which is herbey incorporated by reference in its entirety). In this assay, CGRP induced the MDA-MB-231BR breast cancer cells 6-fold over control after 4 days in culture under normoxic conditions (FIGS. 4A-B).

FL-CGRP = molecular target: T1, FL-CGRP (Rattus norvegicus, UniProt P01256); test: Immunoprecipitation of FL-CGRP by anti-CGRP antibodies; assay type: binding; conditions: saturating unlabeled CGRP
T1 sequence (P01256 83-119 limits assumed): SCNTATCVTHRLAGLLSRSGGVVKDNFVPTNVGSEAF
Excerpt: FIGS. 10A-B illustrate the immunoprecipitation of FL-CGRP using anti-CGRP antibodies JH84 and MU33. FIG. 10B schematically illustrates the binding sites of these antibodies.
To be useful for development of non-radioactive competition assays, which will be useful for quantifying CGRP in tissues and cells, the FL-label at lysine^24 cannot inhibit anti-CGRP antibody binding. […] The binding sites for JH84 and MU33 on CGRP are illustrated schematically in FIG. 10B.

CNS1 glioma cells [3] = test: CNS1 glioma tumor cell proliferation assay (CyQuant Direct Proliferation Assay); assay type: cell-based, rat; conditions: for stimulation of glioma growth over control: hypoxic conditions
Method: as §1, with “3A-B” for “4A-B”, “CNS1 glioma” for “MDA-MB231BR breast cancer”, “CNS1” for “MDA-MB231BR”, “(3A)” for “(4A)”, “[…]” for “(4B)”
The rat glioma cell line CNS1 was used in a tumor cell proliferation assay. Both AM and CGRP were tested for their ability to stimulate glioma growth. […] More striking was the effect under hypoxic conditions, where CGRP stimulated glioma growth 72-fold over control after 4 days in culture and 10-fold after 5 days in culture (FIG. 3B).

[4] = system: CGRP receptors (CLR-cherry and RAMP1); test: FL-CGRP binding to COS1 cells transfected with CLR-cherry and RAMP1 (fluorescence microscopy)
Method: FIG. 12 is a panel of microscopy images illustrating that FL-CGRP specifically binds to cells expressing CLR and RAMP1. COS1 cells were transfected with CLR-cherry and RAMP1. 30 nM FL-CGRP was incubated with transfected cells for 30 minutes, and cells were washed 2× with PBS and visualized by phase-contrast microscopy (left panel), and fluorescent microscopy to identify cells expressing the CLR-cherry fusion protein (center panel) and cells that bound FL-CGRP (right panel).
COS1 cells were transfected with a fusion protein containing CLR-fused at its carboxyl terminus to the fluorescent protein cherry. CLR-cherry and RAMP1 were co-transfected into COS1 cells, and 48 hours post-transfection cells were incubated with FL-CGRP, and imaged using phase contrast microscopy (FIG. 12, left panel) as well as fluorescence microscopy for cherry (580 nm) (FIG. 12, center panel) and FL-CGRP (488 nm) (FIG. 12, right panel).

[5] = system: breast cancer lines (human MDA-MB-231 and MDA-MB-231 BR, mouse 4T1 and TG1); test: Growth of breast cancer lines constitutively expressing L2/EGFP (FACS-purified); assay type: cell-based; conditions: constitutive promoter
Excerpt: To determine if the dominant-negative L2/EGFP fusion protein could inhibit CLR function in breast cancer cells, four breast cancer lines (human MDA-MB-231 and MDA-MB-231 BR lines and mouse 4T1 and TG1 lines) were transfected with L2/EGFP or GFP alone. MDA-MB231 and MDA-MB-231BR cells that constitutively express GFP were generated as previously described (Evans et al., “CGRP-RCP, a Novel Protein Required for Signal Transduction at Calcitonin Gene-Related Peptide and Adrenomedullin Receptors,” J Biol Chem 275(40):31438-43 (2000); Prado et al., “The Role of the CGRP-Receptor Component Protein (RCP) in Adrenomedullin Receptor Signal Transduction,” Peptides 22(11):1773-81 (2001); and Rosenblatt et al., “Endoproteolysis at Tetrabasic Amino Acid Sites in Procalcitonin Gene-Related Peptide by Pituitary Cell Lines” Peptides 18(4):567-76 (1997), which are hereby incorporated by reference in their entirety). However, when a constitutive promoter was used to express L2/EGFP in these tumor cells, pure fluorescent colonies could not be isolated because, it is believed, the constitutive expression of L2/EGFP was too effective at inhibiting tumor growth.

RCP = molecular target: T2, RCP (Mus musculus, UniProt O35427); test: Co-immunoprecipitation of RCP with L2/EGFP in NIH3T3 cells; assay type: binding; conditions: L2/EGFP transfected into NIH3T3 cells, GFP immunoprecipitation, probed with anti-RCP
T2 construct: endogenous in cells; host or cells: NIH3T3
Excerpt: (§2) FIG. 7A is a schematic illustration showing that the second intracellular loop of CLR was cloned as a fusion protein with enhanced green fluorescent protein (EGFP). […] The immunoprecipitate was separated by SDS-PAGE and probed with an antibody directed against RCP. RCP co-immunoprecipitated with the L2/EGFP fusion protein (lanes 5, 6) indicating an interaction between RCP and the second intracellular loop of CLR.
(§3) A fusion protein was constructed containing the second intracellular loop (“L2” or elsewhere designated “cpd2”) of CLR and the enhanced green fluorescent protein (L2/EGFP) (FIG. 7A). RCP co-immunoprecipitated with the L2/EGFP fusion protein, indicating a direct interaction between the two proteins (FIG. 7B). […] This confirmed the belief that over-expression of L2/EGFP pulls most of the available RCP away from the CGRP receptor complex, and that the CLR/RAMP1 complex is unable to signal. Thus, the site of interaction between the second intracellular loop of CLR and RCP represents a novel control site for signaling at CLR, and represents a candidate for development of anti-proliferative drugs to combat tumor growth.

CNS1 glioma cells [6] = test: Growth of CNS1 glioma cells constitutively expressing L2/EGFP (FACS-purified); assay type: cell-based, rat; conditions: constitutive expression
Excerpt: To examine the role of CLR in glioma proliferation, inhibition of CLR via expression of L2/EGFP was attempted. Although CNS1 cells that constitutively express GFP were generated using published techniques (Evans et al., “CGRP-RCP, A Novel Protein Required for Signal Transduction At Calcitonin Gene-Related Peptide and Adrenomedullin Receptors,” J Biol Chem 275(40):31438-43 (2000); Prado et al., “The Role of the CGRP-Receptor Component Protein (RCP) in Adrenomedullin Receptor Signal Transduction,” Peptides 22(11):1773-81 (2001); Rosenblatt et al., “Endoproteolysis At Tetrabasic Amino Acid Sites in Procalcitonin Gene-Related Peptide by Pituitary Cell Lines,” Peptides 18(4):567-76 (1997), which are hereby incorporated by reference in their entirety), upon transfection of the constitutively expressed L2/EGFP construct, pure fluorescent colonies could not be isolated.

CGRP receptor [7] = molecular target: T3, CGRP receptor (Mus musculus, UniProt O35427); test: CGRP receptor signaling (cAMP) in NIH3T3 cells expressing L2/EGFP; assay type: cell-based; conditions: L2/EGFP expressed in NIH3T3 cells, which endogenously express CGRP receptors
T3 construct: NIH3T3 cells, which endogenously express CGRP receptors; endogenous in cells; host or cells: NIH3T3
Excerpt: as §2, §3

CGRP receptor [8] = conditions: oocyte-CFTR assay, Luebke et al. 1996; cited from earlier work

T2 sequence (O35427 whole entry): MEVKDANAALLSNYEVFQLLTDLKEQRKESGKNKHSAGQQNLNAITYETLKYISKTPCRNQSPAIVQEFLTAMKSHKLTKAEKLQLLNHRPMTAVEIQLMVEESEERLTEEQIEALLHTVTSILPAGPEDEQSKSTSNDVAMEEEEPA
T3 sequence (O35427 whole entry): as above

## NCCCC[C@H](NC(=O)[C@@H](Cc1cc(Br)c(O)c(Br)c1)NC(=O)N1CCC(N2Cc3ccccc3NC2=O)CC1)C(=O)N1CCN(c2ccncc2)CC1 [BIB4096, N-((1R)-2-(((1S)-5-amino-1-((4-(pyridin-4-yl)piperazin-1-yl)carbonyl)pentyl)amino)-1-(3,5-dibromo-4-hydroxybenzyl)-2-oxoethyl)-4-(2-oxo-1,4-dihydroquinazolin-3(2H)-yl)piperidine-1-carboxamide]
[1]
  lower affinity for rodent receptors over human receptors: 100-1000 ×

## AM: the homologous neuropeptide adrenomedullin
anti-CGRP antibody JH84
  competition with FL-CGRP for binding to immobilized antibody: did not compete

## CGRP8-37: peptide CGRP antagonist consisting of residues 8-37 of SEQ ID NO: 2
anti-CGRP antibody JH84
  competition with FL-CGRP for binding to immobilized antibody: partially competed

## CGRP: 37 amino acid neuropeptide derived from calcitonin-related polypeptide alpha; agonist of the CGRP receptor
[2]
  induction of MDA-MB-231BR breast cancer cells over control: 6 fold
FL-CGRP
  effect on immunoprecipitation of FL-CGRP by JH84 and MU33: blocked
CNS1 glioma cells [3]; after 4 days in culture
  stimulation of glioma growth over control: 72 fold
CNS1 glioma cells [3]; after 5 days in culture
  stimulation of glioma growth over control: 10 fold
CNS1 glioma cells [3]; normoxic conditions, after 5 days in culture
  increase of CNS1 cell growth over control: 11 fold
anti-CGRP antibody JH84
  competition with FL-CGRP for binding to immobilized antibody: effectively competed

## FL-CGRP: rat CGRP with a single Alexa488 dye molecule attached to the lysine24 residue
[4]
  binding to CGRP receptors: high-affinity
[4]; COS1 cells co-transfected with CLR-cherry and RAMP1, 48 hours post-transfection, 30 nM FL-CGRP
  FL-CGRP binding to cells: only observed to bind to cells that were expressing CLR-cherry
[4]; untransfected cells
  FL-CGRP binding to cells: No FL-CGRP binding was detected

## L2/EGFP: fusion protein of the second intracellular loop of CLR and enhanced green fluorescent protein; dominant-negative inhibitor of CLR signaling (LIVVAVFAEKQHLMWYYFLGWGFPLIPACIH; also: fusion protein with EGFP)
[5]
  growth of pure populations of cells expressing the dominant-negative inhibitor: would not grow
RCP
  co-immunoprecipitation with RCP: co-immunoprecipitated
CNS1 glioma cells [6]
  growth of pure populations of cells expressing the dominant-negative inhibitor: would not grow
CGRP receptor [7]
  signaling at the CGRP receptor as measured by cAMP: inhibited signaling at the CGRP receptor

## SEQ ID NO:9: antisense DNA oligonucleotide TGCTCACTGTGTAAGCCTTAAATCCATCAAG (DNA, backbone not given here)
CGRP receptor [8]
  CGRP receptor function: inhibit CGRP receptor function
